Measured values: ChEMBL document CHEMBL5291721, “A preclinical secondary pharmacology resource illuminates target-adverse drug reaction associations of marketed drugs” (Nat Commun, 2023)

Tests used:
Bile salt export pump = Bile salt export pump (Homo sapiens, UniProt O95342); format: functional
[1] = biological target: Voltage-gated inwardly rectifying potassium channel KCNH2 (Homo sapiens, UniProt Q12809); format: functional
Further: assay procedure not described here.

Chain of Bile salt export pump (O95342 whole entry): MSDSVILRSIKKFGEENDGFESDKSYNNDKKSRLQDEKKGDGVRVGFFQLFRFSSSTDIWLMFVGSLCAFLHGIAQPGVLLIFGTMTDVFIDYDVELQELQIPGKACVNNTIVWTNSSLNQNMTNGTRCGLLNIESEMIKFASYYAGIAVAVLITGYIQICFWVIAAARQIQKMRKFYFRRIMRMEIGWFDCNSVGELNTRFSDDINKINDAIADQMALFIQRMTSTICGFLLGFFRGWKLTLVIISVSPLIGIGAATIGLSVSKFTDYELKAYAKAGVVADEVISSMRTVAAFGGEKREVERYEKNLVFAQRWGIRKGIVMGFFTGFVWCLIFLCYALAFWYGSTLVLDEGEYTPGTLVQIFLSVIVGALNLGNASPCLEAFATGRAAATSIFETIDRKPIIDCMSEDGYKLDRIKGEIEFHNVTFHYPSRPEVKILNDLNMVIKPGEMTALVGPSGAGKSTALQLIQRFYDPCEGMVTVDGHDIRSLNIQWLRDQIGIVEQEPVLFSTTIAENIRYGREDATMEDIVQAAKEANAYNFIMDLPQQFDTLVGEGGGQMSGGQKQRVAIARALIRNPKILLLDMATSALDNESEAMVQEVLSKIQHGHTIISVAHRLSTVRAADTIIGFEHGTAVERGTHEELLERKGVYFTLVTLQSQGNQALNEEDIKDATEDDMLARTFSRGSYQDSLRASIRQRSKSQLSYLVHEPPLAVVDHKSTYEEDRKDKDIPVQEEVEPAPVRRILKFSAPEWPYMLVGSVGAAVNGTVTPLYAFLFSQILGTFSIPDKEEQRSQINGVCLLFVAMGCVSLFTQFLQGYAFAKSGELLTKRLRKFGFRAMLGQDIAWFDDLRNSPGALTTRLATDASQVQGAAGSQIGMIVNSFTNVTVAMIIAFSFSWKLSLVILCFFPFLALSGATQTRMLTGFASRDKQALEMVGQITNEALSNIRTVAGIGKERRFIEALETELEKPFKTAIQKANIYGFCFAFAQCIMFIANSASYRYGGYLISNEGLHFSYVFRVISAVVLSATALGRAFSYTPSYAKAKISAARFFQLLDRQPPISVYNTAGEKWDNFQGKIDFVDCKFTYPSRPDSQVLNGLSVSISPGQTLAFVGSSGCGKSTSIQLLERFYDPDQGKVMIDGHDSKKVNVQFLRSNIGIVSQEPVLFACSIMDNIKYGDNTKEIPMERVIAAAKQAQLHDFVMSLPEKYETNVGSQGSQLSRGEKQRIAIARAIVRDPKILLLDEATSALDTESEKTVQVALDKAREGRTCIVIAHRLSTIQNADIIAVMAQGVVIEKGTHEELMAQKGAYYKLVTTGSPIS
Chain of Voltage-gated inwardly rectifying potassium channel KCNH2 (Q12809 whole entry): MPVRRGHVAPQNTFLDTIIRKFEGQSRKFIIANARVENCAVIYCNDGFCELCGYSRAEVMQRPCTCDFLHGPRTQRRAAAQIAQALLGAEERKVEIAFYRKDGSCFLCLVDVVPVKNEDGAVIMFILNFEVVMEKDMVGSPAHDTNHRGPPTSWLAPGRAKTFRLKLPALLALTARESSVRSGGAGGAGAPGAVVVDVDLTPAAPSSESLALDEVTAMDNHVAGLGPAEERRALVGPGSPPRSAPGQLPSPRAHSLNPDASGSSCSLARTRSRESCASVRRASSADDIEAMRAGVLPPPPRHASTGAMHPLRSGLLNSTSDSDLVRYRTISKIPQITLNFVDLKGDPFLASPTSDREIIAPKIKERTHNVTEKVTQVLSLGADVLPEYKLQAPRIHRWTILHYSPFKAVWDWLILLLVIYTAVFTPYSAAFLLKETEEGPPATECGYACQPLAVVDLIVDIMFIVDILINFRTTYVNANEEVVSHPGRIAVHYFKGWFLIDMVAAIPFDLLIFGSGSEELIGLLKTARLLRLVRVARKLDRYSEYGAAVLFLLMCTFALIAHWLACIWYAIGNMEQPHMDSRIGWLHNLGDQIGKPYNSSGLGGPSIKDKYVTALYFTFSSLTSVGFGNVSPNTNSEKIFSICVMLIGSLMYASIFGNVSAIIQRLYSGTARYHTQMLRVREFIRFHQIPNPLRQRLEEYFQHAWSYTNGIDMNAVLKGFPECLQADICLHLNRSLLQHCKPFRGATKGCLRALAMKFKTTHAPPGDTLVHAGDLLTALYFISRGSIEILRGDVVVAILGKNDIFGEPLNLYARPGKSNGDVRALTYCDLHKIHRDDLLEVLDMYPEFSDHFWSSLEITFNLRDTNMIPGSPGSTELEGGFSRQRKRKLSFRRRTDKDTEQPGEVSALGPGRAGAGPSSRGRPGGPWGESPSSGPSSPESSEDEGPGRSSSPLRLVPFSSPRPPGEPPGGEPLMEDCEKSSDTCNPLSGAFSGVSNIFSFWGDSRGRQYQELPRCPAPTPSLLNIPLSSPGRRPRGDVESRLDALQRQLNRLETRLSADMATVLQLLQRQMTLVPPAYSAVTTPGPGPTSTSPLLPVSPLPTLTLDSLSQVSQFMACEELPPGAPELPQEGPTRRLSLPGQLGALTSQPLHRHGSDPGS

Row | SMILES | AC50 (Bile salt export pump) [µM] | AC50 [1] [µM]
1 | C[C@H](CCC(=O)O)[C@H]1CC[C@H]2[C@@H]3[C@@H](O)C[C@@H]4C[C@H](O)CC[C@]4(C)[C@H]3CC[C@]12C [URSODIOL] | 95 | > 30
2 | CC(C(=O)O)c1ccc2c(c1)[nH]c1ccc(Cl)cc12 (stereo unspecified) [CARPROFEN] | 120 | > 30
3 | COc1ccccc1OCCNCC(O)COc1cccc2[nH]c3ccccc3c12 (stereo unspecified) [CARVEDILOL] | 79 | –
4 | O=C1CN(/N=C/c2ccc(-c3ccc([N+](=O)[O-])cc3)o2)C(O)=N1 [DANTROLENE] | 35 | > 30
5 | C[C@@H](NCCCc1cccc(C(F)(F)F)c1)c1cccc2ccccc12 | 58 | 1.3
6 | C=CC[C@@H]1/C=C(\C)C[C@H](C)C[C@H](OC)[C@H]2O[C@@](O)(C(=O)C(=O)N3CCCC[C@H]3C(=O)O[C@H](/C(C)=C/[C@@H]3CC[C@@H](O)[C@H](OC)C3)[C@H](C)[C@@H](O)CC1=O)[C@H](C)C[C@@H]2OC [TACROLIMUS ANHYDROUS] | 11 | > 30
7 | CN(C)CC[C@@H](c1ccc(Cl)cc1)c1ccccn1 [DEXCHLORPHENIRAMINE] | > 300 | –
8 | CN1C[C@H](C(=O)N[C@]2(C)O[C@@]3(O)[C@@H]4CCCN4C(=O)[C@H](Cc4ccccc4)N3C2=O)C=C2c3cccc4[nH]cc(c34)C[C@H]21 [ERGOTAMINE] | 25 | 14.4
9 | CC(C)c1nc(N(C)S(C)(=O)=O)nc(-c2ccc(F)cc2)c1/C=C/[C@@H](O)C[C@@H](O)CC(=O)O [ROSUVASTATIN] | 160 | > 30
10 | C[C@H]1c2cccc(O)c2C(=O)C2=C(O)[C@]3(O)C(=O)C(C(N)=O)=C(O)[C@@H](N(C)C)[C@@H]3[C@@H](O)[C@@H]21 [DOXYCYCLINE] | > 300 | > 30
11 | O=C1C(CC[S+]([O-])c2ccccc2)C(=O)N(c2ccccc2)N1c1ccccc1 (stereo unspecified) [SULFINPYRAZONE] | 24 | > 30
12 | CCN(CC)CCNC(=O)c1c(C)[nH]c(/C=C2\C(=O)Nc3ccc(F)cc32)c1C [SUNITINIB] | 34 | –
